Where two headings read alike, the source gives them in different places. Blank lines part the entries; values can stand above or below the compound they belong to.
Legend:
[1] = type: in vivo, human; settings: component of flavopiridol + FOLFOX
[2] = Flavopiridol plasma pharmacokinetics; type: in vivo; settings: human, intravenous, 80 mg/m2, Cmax, cohort 7a (80 mg/m^2)
[3] = 70 mg/m^2, combined with irinotecan; cited from earlier work
cisplatin-refractory GCT = settings: single agent, cited from earlier work

SMILES: O=c1[nH]cc(F)c(=O)[nH]1 [5FU, fluorouracil]
Maximum tolerated dose (MTD), continuous infusion over 48 hours ([1]; every 2 weeks (cohort 6a)): 1800 mg/m^2
Maximum tolerated dose (MTD), bolus ([1]; every 2 weeks (fixed dose)): 400 mg/m^2

Cmax ([2]; the 3 patients who experienced a DLT): 2260 nM
Cmax ([2]; the other patients in the cohort): 1450 nM
SMILES: CN1CC[C@H](c2c(O)cc(O)c3c(=O)cc(-c4ccccc4Cl)oc23)[C@H](O)C1 [flavopiridol, Flavopiridol]
Cmax [3]: 2760 ± 540 nM

SMILES: O=C1[O][Pt]2([NH][C@@H]3CCCC[C@H]3[NH]2)[O]C1=O [oxaliplatin]
Overall response rate (cisplatin-refractory GCT; 60 mg/m^2 weekly on days 1, 8, 15 every 28 days): 6%
Objective response rate (cisplatin-refractory GCT; 130 mg/m^2 every 2 weeks): 19%

Source: article PMC2787644 (Clinical cancer research : an official journal of the …, 2009)
